Results: publication PMC6472409, “Dishevelled-3 conformation dynamics analyzed by FRET-based biosensors reveals a key role of casein kinase 1” (Nature Communications, 2019)
“And” between values parts separate entries of the source, which are not always exact repeats. Equal entries are not always repeated.

Key:
[1] = test system: DVL3 subcellular localization in HEK293 cells; experiment: DVL3 subcellular localization (punctae/even), immunofluorescence; type: cell-based, human
[2] = test system: DVL3 membrane recruitment by FZD6 in HEK293 cells; experiment: FZD6-dependent membrane recruitment of DVL3, immunofluorescence; type: cell-based, human; parameters: key to Non-recruited (DVL3 membrane recruitment): number of cells out of 100 positive cells scored; conditions: Fig 8c
From the text: First, we analyzed the preferred subcellular localization of DVL3 (as introduced in Fig. 2c)[10],[14]. […] Next, we investigated if DVL3 conformation correlates with the capacity of DVL3 to be recruited by FZD6, a key Wnt receptor, to the plasma membrane. For this purpose, we co-expressed FZD6 and analyzed membrane recruitment of DVL3 in FZD6-positive cells by immunofluorescence. Individual cells were categorized as: not recruited (Fig. 8b, no DVL3 in the membrane), partially recruited (clear membrane as well as cytoplasmic localization), and fully recruited (predominantly plasma membrane localization, Fig. 8c, left). […] In the last readout we analyzed the capacity of DVL3 to activate downstream Wnt/β-catenin pathway monitored by TopFlash reporter assay (Fig. 8d). […] On the other hand, under conditions that favor the open conformation both activation as well as inhibition of the Wnt/β-catenin pathway was evident.
For immunofluorescence, cells were seeded (40,000 per well) on 24-well plates with gelatin-coated coverslips and transfected, as indicated, with 0.1 μg of each corresponding plasmid (0.3 μg of mCherry-FZD6) for 6 h. For western blotting and Dual Luciferase TopFlash/Renilla Reporter Assay, cells were seeded (60,000 per well) directly on 24-well plates with 0.1 μg of each corresponding plasmid (if not indicated otherwise) for 6 h. For coimmunoprecipitation, cells were seeded (4.4 × 10^6) on 10-cm dishes and transfected with 1 μg of each corresponding plasmid. The next day after seeding, cells were transfected using polyethyleneimine (PEI) in a stoichiometry of 6 μl of PEI per 1 μg of DNA for 6 h and were harvested 24 h after transfection. The following plasmids used in HEK293 cells have been described previously: FLAG-DVL3 wt[47], CK1ϵ wt[48], mCherry-FZD6 (ref. [37]), and dominant-negative CK1ϵ P3 (ref. [33]). The ECFP-DVL3 wt plasmid was made by Gateway Technology (via LR recombination according to the manufacturer’s instructions; Thermo Fisher Scientific, #11791020) from the donor plasmid pDONR221 DVL3 (DNASU, #FLH178665.01x) and the destination plasmid pdECFP (LMBP, #4548). The HA-DVL3 wt plasmid was made by Gateway Technology from the donor plasmid pDONR221 DVL3 (DNASU, #FLH178665.01x) and the destination plasmid pcDNA3.1 N-term HA (gift from Erich Nigg).
Cells were seeded on gelatin-coated coverslips in 24-well plates and were transfected the next day. Cells were fixed 24 h later in fresh 4% paraformaldehyde, permeabilized with 0.5% Triton X-100, blocked with PBS/BSA/Triton/Azide buffer (PBTA) [3% (wt/vol) BSA, 0.25% Triton, 0.01% NaN3] for 1 h, and incubated overnight with primary antibodies (in dilution 1:500) in PBTA at 4 °C. The next day, the coverslips were washed in PBS and incubated with secondary antibodies conjugated to Alexa Fluor 488 (Invitrogen A11001) or/and Alexa Fluor 594 (Invitrogen A11058) (all in dilution 1:1000), washed with PBS [in case of samples containing FLAG-DVL3 WT and derived variants stained with DAPI (1:5000)], and all coverslips were mounted on microscopic slides. Cells were then visualized on an Olympus IX51 fluorescent microscope using ×40 air or ×100 oil objectives and/or an Olympus Fluoview 500 confocal laser scanning microscope IX71 using ×100 oil objective. One hundred positive cells per experiment (n = 3) were analyzed and scored according to their phenotype into two/three categories (punctae/even); or non-recruited/partially/fully recruited for FZD6-dependent recruitment of DVL3. The antibodies used were as follows: anti-FLAG M2 (Sigma-Aldrich, #F1804), anti-DVL3 (Santa Cruz, #sc-8027), anti-CK1ɛ (Santa Cruz, #sc-6471), anti-RFP (Chromotek, #5h9) and anti-GFP (Fitzgerald, #20R-GR-011).

Wnt/β-catenin pathway = experiment: Dual Luciferase TopFlash/Renilla Reporter Assay; type: cell-based, human; conditions: for TopFlash relative to ctrl (= 1): Suppl. Fig. 2a; for TopFlash FlAsH III (CK1e-/-), relative to ctrl (= 1): Suppl. Fig. 4f, CK1e-/- cells
Protocol: Cells were transfected 24 h after seeding with 0.1 μg of Super8X TopFlash construct, 0.1 μg of Renilla luciferase construct, and 0.1 μg of corresponding plasmids per well for 6 h in a 24-well plate. As for the ECFP-DVL3 FIII wt stable cell lines, transfection was followed by 4 h induction of tetracycline (1 µg/ml) and 8 h treatment of CM:DMEM (1:1 ratio). For performing this assay, Promega Dual Luciferase assay kit (Promega, #E1910) was used according to the manufacturer’s instructions. Luminescence was measured by a Hidex Bioscan Plate Chameleon Luminometer. Results are depicted as the ratio of TopFlash and Renilla signal (TopFlash fold induction), which was normalized for each experiment to certain control column (normalized TopFlash fold induction). Data were analyzed by MS Excel 2007 and GraphPad Prism 6 and results were shown as the means ± S.D. (number of experiments indicated ad hoc).

Xenopus laevis embryos = experiment: Convergent extension (CE) / neural tube defects in Xenopus embryos (Wnt/PCP readout); type: in vivo; conditions: Dorsal injection, 100pg/embryo
From the text: In the cell culture model we were unable to dissect the effects on the non-canonical Wnt/PCP pathway, and as such we turned into the Xenopus embryo model. Alterations in the Wnt/PCP pathway activity result in the convergent extension (CE) defects (Supplementary Fig. 7b, right). In order to avoid any artifacts, we tested the constitutively open and closed variants of xDvl3 based on point mutations or small deletions—namely open xDvl3 ΔC and xDvl3 (S267E/S310E) and closedxDvl3 (S267A/S310A). Phosphorylation sites in the PDZ domain are fully conserved between human and Xenopus (for alignment see Supplementary Fig. 5a) and hDVL3 S268/S311 corresponds to xDvl3 S267/S310.
The work with Xenopus laevis was carried out according to the German animal use and care law (Das Tierschutzgesetz) and approved by the local authorities and committees (animal care and housing approval: I/39/EE006, Veterinäramt Erlangen; animal experiments approval: 54-2532.2-8/08, German state administration Bavaria/Regierung von Mittelfranken). The generation and cultivation of Xenopus embryos was done in accordance with general protocols and staged after the normal table of Niewkoop and Faber (1994)[53].
RNA for microinjection was synthesized from plasmids pCS2 myc-xDvl3 (ref. [54]), pCS2 myc-xDvl3 ΔALL (lacking sequence corresponding to aa 338–350, 609–619, and 693–705 in xDvl3), pCS2 xDvl3 (S267A/S310A), pCS2 xDvl3 (S267E/S310E), pCS2 xDvl3 ΔC, and pCS2 xCK1ε[55], respectively, using the mMessage mMachine Kit (Ambion). Embryos were injected at the four-cell stage either into the two ventral blastomeres for testing the constructs' ability to induce a secondary body axis. Injection amounts of synthetic RNA were 500 pg for myc-xDvl3 wild type and the myc-xDvl3 ∆ALL variant, and 150 pg for xCK1ε RNA. For the analysis of morphogenetic defects, four-cell stage embryos were injected into the two dorsal blastomeres with 100 pg myc-xDvl3 RNA and the corresponding variant RNAs. After injection, the embryos were cultivated until they reached stage 26, fixed, and analyzed for axis duplication or morphogenetic defects, respectively.

[3] = Fig 2c, DVL3-FLAG, 10 μM inhibitor, replicate 1, 100 cells
[4] = Fig 8b, ECFP-DVL3 wt, HEK293 wt, inhibitor, exp1-exp3, 100 cells each, listed as INH
[5] = sensor FlAsH III, replicate of grid row r5
[6] = sensor FlAsH III, replicate of grid row r6
[7] = sensor FlAsH III, replicate of grid row r7

Molecule: Nc1nccc(-c2c(-c3ccc(F)cc3)ncn2C2CCCCC2)n1 [PF670462, reference compound]
- Even (%) [1, 3]: 1%
- Punctae (%) [1, 3]: 99%
- Punctae (%) ([1]; Fig 2c, DVL3-FLAG, 10 μM inhibitor, replicate 2, 100 cells): 98%
- Punctae (%) ([1]; Fig 2c, DVL3-FLAG, 10 μM inhibitor, replicate 3, 100 cells): 99%
- Even (%) [1, 4]: 5% and 11% and 8%
- Punctae (%) [1, 4]: 95% and 89% and 92%
- Fully recruited (DVL3 membrane recruitment) ([2]; exp1): 1
- Non-recruited (DVL3 membrane recruitment) ([2]; exp1): 77
- Partially recruited (DVL3 membrane recruitment) ([2]; exp1): 22
- Fully recruited (DVL3 membrane recruitment) ([2]; exp2): 10
- Non-recruited (DVL3 membrane recruitment) ([2]; exp2): 66
- Partially recruited (DVL3 membrane recruitment) ([2]; exp2): 24
- Fully recruited (DVL3 membrane recruitment) ([2]; exp3): 15
- Non-recruited (DVL3 membrane recruitment) ([2]; exp3): 59
- Partially recruited (DVL3 membrane recruitment) ([2]; exp3): 26
- TopFlash/Renilla activation, in words (Wnt/β-catenin pathway; DVL3 wt + inhibitor, HEK293 cells, Fig 8d): no (or negligible) TopFlash/Renilla activation
- TopFlash relative to DVL3 wt (= 1) (Wnt/β-catenin pathway; Fig 8d, replicate of grid row r4): 0.13
- TopFlash relative to DVL3 wt (= 1) (Wnt/β-catenin pathway; Fig 8d, replicate of grid row r5): 0.1
- TopFlash relative to DVL3 wt (= 1) (Wnt/β-catenin pathway; Fig 8d, replicate of grid row r6): 0.2
- TopFlash relative to ctrl (= 1) (Wnt/β-catenin pathway; sensor FlAsH I, replicate of grid row r5): 0.09288
- TopFlash relative to ctrl (= 1) (Wnt/β-catenin pathway; sensor FlAsH I, replicate of grid row r6): 0.06555
- TopFlash relative to ctrl (= 1) (Wnt/β-catenin pathway; sensor FlAsH I, replicate of grid row r7): 0.095
- TopFlash relative to ctrl (= 1) (Wnt/β-catenin pathway; sensor FlAsH II, replicate of grid row r5): 0.04123
- TopFlash relative to ctrl (= 1) (Wnt/β-catenin pathway; sensor FlAsH II, replicate of grid row r6): 0.0401
- TopFlash relative to ctrl (= 1) (Wnt/β-catenin pathway; sensor FlAsH II, replicate of grid row r7): 0.09362
- TopFlash relative to ctrl (= 1) (Wnt/β-catenin pathway; [5]): 0.07646
- TopFlash relative to ctrl (= 1) (Wnt/β-catenin pathway; [6]): 0.1238
- TopFlash relative to ctrl (= 1) (Wnt/β-catenin pathway; [7]): 0.1277
- TopFlash relative to ctrl (= 1) (Wnt/β-catenin pathway; sensor FlAsH IV, replicate of grid row r5): 0.0466
- TopFlash relative to ctrl (= 1) (Wnt/β-catenin pathway; sensor FlAsH IV, replicate of grid row r6): 0.04626
- TopFlash relative to ctrl (= 1) (Wnt/β-catenin pathway; sensor FlAsH IV, replicate of grid row r7): 0.05626
- TopFlash FlAsH III (CK1e-/-), relative to ctrl (= 1) (Wnt/β-catenin pathway; [5]): 0.8229
- TopFlash FlAsH III (CK1e-/-), relative to ctrl (= 1) (Wnt/β-catenin pathway; [6]): 0.6189
- TopFlash FlAsH III (CK1e-/-), relative to ctrl (= 1) (Wnt/β-catenin pathway; [7]): 1.097

B1: WT-Dvl3 (protein, UniProt Q92997 1-716, looked up)
Segment polarity protein …: MGETKIIYHLDGQETPYLVKLPLPAERVTLADFKGVLQRPSYKFFFKSMDDDFGVVKEEISDDNAKLPCFNGRVVSWLVSAEGSHPDPAPFCADNPSELPPPMERTGGIGDSRPPSFHPHAGGGSQENLDNDTETDSLVSAQRERPRRRDGPEHATRLNGTAKGERRREPGGYDSSSTLMSSELETTSFFDSDEDDSTSRFSSSTEQSSASRLMRRHKRRRRKQKVSRIERSSSFSSITDSTMSLNIITVTLNMEKYNFLGISIVGQSNERGDGGIYIGSIMKGGAVAADGRIEPGDMLLQVNEINFENMSNDDAVRVLREIVHKPGPITLTVAKCWDPSPRGCFTLPRSEPIRPIDPAAWVSHTAAMTGTFPAYGMSPSLSTITSTSSSITSSIPDTERLDDFHLSIHSDMAAIVKAMASPESGLEVRDRMWLKITIPNAFIGSDVVDWLYHNVEGFTDRREARKYASNLLKAGFIRHTVNKITFSEQCYYIFGDLCGNMANLSLHDHDGSSGASDQDTLAPLPHPGAAPWPMAFPYQYPPPPHPYNPHPGFPELGYSYGGGSASSQHSEGSRSSGSNRSGSDRRKEKDPKAGDSKSGGSGSESDHTTRSSLRGPRERAPSERSGPAASEHSHRSHHSLASSLRSHHTHPSYGPPGVPPLYGPPMLMMPPPPAAMGPPGAPPGRDLASVPPELTASRQSFRMAMGNPSEFFVDVM
- open neural tube (number of embryos) (Xenopus laevis embryos; 1. Injection): 3
- open neural tube (number of embryos) (Xenopus laevis embryos; 2. Injection): 1
- shortened AP axis (number of embryos) (Xenopus laevis embryos; 2. Injection): 0
- open neural tube (number of embryos) (Xenopus laevis embryos; 3. Injection): 0
- shortened AP axis (number of embryos) (Xenopus laevis embryos; 3. Injection): 0
- open NT (number of embryos) (Xenopus laevis embryos; Graph: sum of injections 1-3): 4
